Reference: patent US20200215169A1, “ANTIBACTERIAL METHODS AND RELATED KITS” (THE HENRY M. JACKSON FOUNDATION FOR THE ADVANCEMENT OF …, priority 2017, published 2020)
Entries after “also recorded” stand apart in the source; their conditions may differ.

Experiments:
[1] = system: E. faecalis OG1RF and Δeep biofilms; assay: Biofilm biomass quantified by safranin staining, OD450 nm, 96-well polystyrene plates; assay type: cell-based, Enterococcus faecalis
Procedure: (§1) Biofilms of the two strains were grown overnight in tryptic soy broth without added glucose in the wells of 96-well polystyrene plates at 37° C. The liquid cultures were removed from the plate, and the material remaining in the wells (i.e., the biomass) was washed five times with sterile water.
Both OG1RF and Δeep were streaked on Brain Heart Infusion (BHI) agar plates and incubated at room temperature for two days. Three colonies from each strain were inoculated in BHI broth and incubated overnight at 37° C. 96-well microtiter plate biofilm assays were performed using the overnight cultures diluted in Tryptic Soy Broth (TSB). Biofilm plates were incubated overnight at 37° C. in a moist environment. The microtiter plate was washed with sterile water. […] After incubation, the microtiter plate was washed again with sterile water and left to dry until water was absent in the wells. The plate was stained with safranin, washed again with sterile water, and then read on a plate reader to determine the amount of biofilm in the wells.

[2] = system: E. faecalis OG1RF and Δeep biofilms; assay: Viable cells (CFU) recovered from biofilm biomass after treatment; conditions: for decrease in viable biofilm cells: three-hour exposure
Procedure: (§2) Cells were scraped up from the wells of the 96-well plate following the post-treatment washing step, as described above. The scraped up cells were serially diluted and plated to assess the number of colony forming units (CFU) recovered per ml (CFU/ml).
The bacteria were then diluted (10^0-10^−7), and plated on Brain Heart Infusion (BHI) plates. The plates were incubated overnight at 37° C.
These solutions were diluted by serial 10-fold dilutions, and then aliquots of each dilution were plated on BHI agar plates to enumerate the number of viable bacteria present in each solution. In addition, the biofilms in the plate were washed, and then two wells of OG1RF biofilms and two wells of Δeep biofilms were removed by scraping manually with a pipette tip and resuspended in potassium phosphate buffered saline. These dislodged biofilm cell solutions were also diluted by serial 10-fold dilutions, and then aliquots of each dilution were plated on BHI agar plates to enumerate the viable bacteria present in each sample. Finally, the remainder of the biofilm wells were allowed to dry for several hours, and then the biomass in each well was stained with safranin. Excess safranin was washed away, and the plates were dried again. Biofilm biomass was quantified by reading the optical density of safranin-stained wells at OD450 nm.

[3] = system: E. faecalis OG1RF and Δeep biofilms; assay: Viable cells in the treatment solution (supernatant) removed from biofilms, dispersal check; assay type: cell-based, Enterococcus faecalis; conditions: 5 mg/ml hen egg white lysozyme, 3 h, 37° C., either strain
Procedure: To conduct this experiment, the number of viable cells that were present in the buffer or lysozyme solution that was removed from the biofilms following exposure was measured. If viable cells were dispersed from the biofilm following treatment, then one should be able to enumerate viable cells in the lysozyme solution removed from the treated wells.
In this experiment, biofilms of E. faecalis OG1RF and Δeep were grown in 96-well microtiter plates overnight. The biofilms were washed to remove non-adherent cells.

[4] = system: planktonic E. faecalis OG1RF and Δeep cells; assay: Viability of planktonic logarithmic and stationary phase cells exposed to lysozyme; assay type: cell-based, Enterococcus faecalis; conditions: 2.5 mg/ml lysozyme, 6 hours
Procedure: Early logarithmic cultures were prepared by diluting overnight cultures 1:100 in BHI broth. To obtain stationary phase cells, BHI broth was inoculated with 3 individual colonies and cultivated for about 18 hours. […] Cultures to which sterile water was added served as controls. Cultures were incubated at 37° C. for 6 hours.

[5] = system: E. faecalis strains DS16, FA2-2, JH2-2, VA1128, V583 and 39-5 biofilms; assay: Biofilm biomass by safranin staining, laboratory strains and clinical isolates; assay type: cell-based, Enterococcus faecalis; conditions: strains DS16, VA1128 and V583, methods of Example 1
Procedure: as §1, with “water. […] Following incubation, the lysozyme or buffer solutions were removed, and the wells were washed again as above.” for “water.”
E. faecalis strains DS16, FA2-2, JH2-2, and 39-5 are strains that have been used for laboratory experiments for many years, and E. faecalis strain V583 is a vancomycin-resistant strain that has become the prototype lab strain for studies of vancomycin-resistant E. faecalis. E. faecalis strain VA1128 is a clinical isolate.

[6] = system: E. faecalis strains DS16, FA2-2, JH2-2, VA1128, V583 and 39-5 biofilms; assay: Viable cells (CFU) recovered from biofilms, laboratory strains and clinical isolates; assay type: cell-based, Enterococcus faecalis; conditions: all tested strains, methods of Example 1
Excerpt: as §2

[7] = system: E. faecalis OG1RF biofilms; conditions: cited from earlier work
E. faecalis OG1RF = conditions: cited from earlier work
[8] = 128 μg/ml ampicillin in water, 3 h, OG1RF and Δeep

For “lysozyme: hen egg white lysozyme (EC 3.2.1.17), enzyme that hydrolyzes beta-1,4-linkages of bacterial cell wall peptidoglycan”, the “increase in stained biomass among 0.156, 1.25 and 5 mg/ml” value ([1]; 1.25 mg/ml lysozyme) was “largest increase”, the “biofilm biomass (safranin staining) versus buffer” value ([1]; 5 mg/ml hen egg white lysozyme, 3 h, 37° C., OG1RF and Δeep) was “increased biofilm biomass of equal magnitude for both strains; also recorded: increased equally for both strains; also recorded: greater than the staining in untreated wells” and the “stained biomass at 6 hours compared to 3 hours” value ([1]; 5 mg/ml lysozyme, 37° C.) was “increased slightly”. The “viable cells recovered from biofilm at 6 and 24 hours compared to 3 hours” value ([2]; 5 mg/ml lysozyme, 37° C.) was “dropped slightly”, the “drop in viable cells recovered from biofilm” value ([2]; OG1RF, 5 mg/ml lysozyme, 3 h, difference in means of 3 biological replicates) was 2.8 log 10 CFU/ml and the “decrease in viable biofilm cells” value ([2]; OG1RF, 5 mg/ml lysozyme) was 99.8%. The “viability of biofilm cells versus untreated or buffer (in words)” value ([2]; lysozyme-treated OG1RF and Δeep biofilms) was “fewer living cells than the untreated strains; also recorded: displayed killing; also recorded: decreased the number of viable biofilm cells”, the “decrease in viable biofilm cells” value ([2]; Δeep, 5 mg/ml lysozyme) was 99.9% and the “viable cells in lysozyme supernatant” value [3] was “no viable cells above the limit of detection”. For the same compound, the “decrease in viable cells” value ([4]; OG1RF and Δeep, stationary phase) was “about 1.5 log 10 CFU/ml”, the “decrease in viable cells” value ([4]; OG1RF, logarithmic growth) was “no decrease” and the “biofilm biomass after treatment” value [5] was “increased, to some extent”. The “viable cells recovered from biofilms” value [6] was “reduced the number of viable cells”.
For “Human lysozyme: purified, recombinant human lysozyme available for purchase”, the “increase in stained biomass” value ([1]; recombinant human lysozyme versus buffer) was “approximately 3.5 fold”, the “decrease in viable cells” value ([2]; OG1RF and Δeep, recombinant human lysozyme) was > 99.9% and the “reduction of viable cells recovered from biofilms” value ([2]; OG1RF, recombinant human lysozyme) was 3.2 log 10 CFU/ml. The “reduction of viable cells recovered from biofilms” value ([2]; Δeep, recombinant human lysozyme) was 4.0 log 10 CFU/ml.
For `CC1(C)S[C@@H]2[C@H](NC(=O)[C@H](N)c3ccccc3)C(=O)N2[C@H]1C(=O)O` [ampicillin, reference compound], the “change in biofilm biomass” value [1, 8] is given as “no changes; also recorded: resistant to any effect”, the “change in biofilm cell viability” value [2, 8] is given as “no changes; also recorded: resistant to any effect” and the “ampicillin concentration to which biofilms are resistant” value [7] is given as > 128 µg/mL. The “susceptibility in planktonic conditions” value (E. faecalis OG1RF) was “susceptible”.
